Experimental data from US7820811B2, “Pro-drugs of adenosine receptor agonists” (CBT Development Limited, priority 2006, dated 2010).
Values belong to the compound of their own block, whether it stands above or below them.

What was measured:
[1] = oral administration; cited from earlier work
[2] = monkey, multiple oral dosing, 14C-labelled; cited from earlier work
[3] = cynamalogous monkeys, cited from earlier work
[4] = system: rat adjuvant model of arthritis; assay: rat adjuvant model of arthritis, analgesic relief; format: in vivo
[5] = system: carageenan-induced oedema in a rat paw; conditions: rats, 20 mg/kg po; cited from earlier work
[6] = system: streptozocin-induced diabetic neuropathy; assay: streptozocin-induced diabetic neuropathy, static allodynia (von Frey hairs); format: in vivo, rats
Procedure: Diabetes was induced by a single i.p. injection of 50 mg/kg streptozocin (Sigma, 50 mg/ml/kg in citrate buffered saline 33 mM pH 4.5). Control animals received single i.p. injection of citrate buffered saline. […] Static allodynia was assessed using von Frey hairs and the paw withdrawal threshold (PWT) in grams (symbols represent the median and vertical bars represent the first and third quartiles) is indicated.

[7] = system: U937 human macrophage cells; conditions: cited from earlier work
adenosine A2A receptor = adenosine A2A receptor (UniProt P30543); assay: EC50 at the adenosine A2A receptor; format: biochemical
Description: For the avoidance of doubt, the EC50 value of a compound is defined herein as the concentration of the compound that provokes a receptor response halfway between the baseline receptor response and the maximum receptor response (as determined, for example, using a dose-response curve).
The EC50 value should be determined under standard conditions (balanced salt solutions buffered to pH 7.4). For EC50 determinations using isolated membranes, cells and tissues this would be in buffered salt solution at pH 7.4 (e.g. cell culture medium), for example as in Daly et al., Pharmacol. (1993) 46, 91-100), or preferably as in Tilburg et al (J. Med. Chem. (2002) 45, 91-100). The EC50 could also be determined in vivo by measuring adenosine receptor mediated responses in a normal healthy animal, or even in a tissue perfused under normal conditions (i.e. oxygenated blood, or oxygenated isotonic media, also buffered at pH 7.4) in a normal healthy animal.

[8] = 20 mg/kg po; cited from earlier work

SMILES: Nc1nc2c(ncn2COCCO)c(=O)[nH]1 [Acyclovir]
urinary excretion of Acyclovir [1]: 19%

SMILES: N=C(N)c1ncn([C@@H]2O[C@H](CO)[C@@H](O)[C@H]2O)n1 [Viramidine]
drug level in red blood cells compared to Ribavarin [2]: only half
drug level in the liver compared to Ribavarin [2]: three times

SMILES: CC(C)[C@H](N)C(=O)OCCOCn1cnc2c(=O)[nH]c(N)nc21 [Valacyclovir]
urinary excretion of Acyclovir [1]: 63%

SMILES: Nc1ccn([C@@H]2C[C@@H](O)[C@H](CO)O2)c(=O)n1 [2′-deoxy-β-L-cytidine]
oral bioavailability (of 2′-deoxy-β-L-cytidine) ([3]; oral): 18%
half-life (po) ([3]; po): 2.95 h

EC50 (adenosine A2A receptor): ~1000 nM
SMILES: COc1nc(N)c2ncn([C@@H]3O[C@H](CO)[C@@H](O)[C@H]3O)c2n1 [spongosine, 2-methoxyadenosine]
minimum plasma concentration giving maximal analgesic relief [4]: 0.06 µM
inhibition of carageenan-induced inflammation [5]: 25%
alleviation of allodynia at late time points ([6]; 2.1 mg/kg dose cohort at 2, 3 and 4 hours): Significant alleviation of allodynia was still evident
dose dependence of reversal of streptozocin induced static allodynia ([6]; 0.6-2.1 mg/kg, po, STZ rats, PWT): dose dependant effects
reversal of static allodynia, all doses ([6]; all doses 0.6-2.1 mg/kg po, STZ rats, PWT): effective at reversing allodynia
reversal of static allodynia, top dose ([6]; top dose (2.1 mg/kg po), versus naïve non-streptozocin injected controls): fully reversed the allodynia
phorbol ester induced TNF alpha release [7]: reduce phorbol ester induced TNF alpha release
reduction in heart rate [8]: 25%
reduction in mean blood pressure [8]: 41%
